# Assay results published in patent US4396623A, “Carbocyclic analogs of uracil nucleosides as antiviral agents” (priority 1981, dated 1983).
# Entries after “also recorded” stand apart in the source; their conditions may differ. Read-outs that look alike come from different tables or passages of the source.
# Legend:
# [1] = test system: herpes simplex virus, Type 1; assay: Antiviral test against herpes simplex virus, Type 1, growing in rabbit kidney cells (Virus Rating, MIC50); assay type: cell-based; set-up: key to Virus Rating (VR) / VR: Ehrlich weighted score; 0.5-0.9 marginal-moderate, ≥1 definite activity; details: for Antiviral activity against herpes simplex virus, in words: same type of test as Table 1; for VR: same type of test against herpes simplex virus (Table 1)
# Description: (§1) Carbocyclic analogs of 5-substituted-2'-deoxyuridines were tested for antiviral activity against viruses that replicate in mammalian cells growing in cell culture. The Virus Rating (VR) is a weighted measurement of antiviral activity determined by the method of Ehrlich et al, Annals of the New York Academy of Science, volume 130, pages 5-16, 1965. In tests carried out by this method, a VR of 0.5-0.9 indicates marginal to moderate antiviral activity and a VR equal to or greater than 1 indicates definite antiviral activity. The higher the value of VR, the greater is the antiviral activity. The MIC50 (minimum inhibitory concentration, 50%) is the concentration of a test compound required for 50% inhibition of virus-induced cytopathogenic effect.
# The results of antiviral tests, performed as described in Example 7, of 5-iodo-2'-deoxyuridine (IdUrd), the carbocyclic analog (Example 3) of 5-iodo-2'-deoxyuridine, 9-β-D-arabinofuranosyladenine (Ara-A), the carbocyclic analog (Example 2) of 5-bromo-2'-deoxyuridine, the carbocyclic analog (Example 5) of 5-(methylamino)-2'-deoxyuridine and the carbocyclic analog of thymidine are summarized in Table 3.
# herpes simplex virus [2] = details: F. M. Schabel, Jr., Chemotherapy 13, 321-328, 1968; listed as IdUrd; cited from earlier work
# [3] = test system: Type 2 herpes simplex virus; assay: Antiviral test against Type 2 herpes simplex virus (Virus Rating); assay type: cell-based; details: for VR: Type 2 herpes simplex virus
# Description: as §1
# murine leukemia virus = assay: Inhibition of murine leukemia virus replication in mouse embryo cells; assay type: cell-based
# Text: (§2) Carbocyclic analogs of 5-substituted-2'-deoxyuridines may inhibit the replication of other DNA viruses. Thus, the carbocyclic analog (Example 3) of 5-iodo-2'-deoxyuridine is active against varicella-zoster virus replicating in human foreskin fibroblasts (Table 2). […] The IdUrd analog (Example 3) was also active against murine leukemia virus, an RNA tumor virus.
# varicella-zoster virus = assay: Inhibition of varicella-zoster virus replication in human foreskin fibroblasts (virus yield-reduction); assay type: cell-based
# Text: as §2
# Virus titers are expressed in terms of log10 CCID50 (cell
# culture infectious dose, 50%) units per ml., and the reduction in virus
# yield after drug treatment is expressed as a logarithm.
# herpes simplex virus [4] = assay: Activity against intracerebral herpes simplex virus in mice (herpes encephalitis); assay type: in vivo; details: for % of Infected Mice that lived 10 days or longer / % of Infected Mice that lived less than six days / Median Survival Time: treated seven days, 10x LD50 intracerebral; for Activity against herpes encephalitis in mice, in words: intracerebral herpes simplex virus
# Description: Mice were inoculated intracerebrally with ten times the LD50 of herpes simplex virus. (The LD50 is the amount of virus that would be lethal to 50% of the inoculated animals.) Some of these virus-infected mice were treated for seven days with the carbocyclic analog (Example 3) of IdUrd, and some of these virus-infected mice were not treated and served as a control group.
# [5] = Table 1, rabbit kidney cells, VR 0.5-0.9 marginal to moderate, >=1 definite antiviral activity
# [6] = Human alphaherpesvirus 1, Table 3 comparison, read-out: MIC50
# [7] = Human alphaherpesvirus 1, Table 1, 50% inhibition of virus-induced cytopathogenic effect, rabbit kidney cells, read-out: MIC50 (minimum inhibitory concentration, 50%)
smiles,measurement,setting,value
"O=c1ccn([C@@H]2C[C@H](CO)[C@@H](O)C2)c(=O)[nH]1 (relative stereo) [Formula I, X = H, R = R^1 = H, (±)-1-[(1α,3β,4α)-3-hydroxy-4-(hydroxymethyl)cyclopentyl]-2,4(1H,3H)-pyrimidinedione, reference compound]",Virus Rating (VR),[1]; [5],0
same,"Antiviral activity against herpes simplex virus, in words",[1],not active
"O=c1[nH]c(=O)n([C@H]2C[C@H](O)[C@@H](CO)O2)cc1I [5-Iodo-2'-deoxyuridine, 5-iodo-2'-deoxyuridine]","Activity against herpes encephalitis in mice, in words",herpes simplex virus [2],not active; also recorded: does not exhibit this type of antiviral activity
same,EC50,[1]; [6],0.3 µg/mL
Nc1cn([C@@H]2C[C@H](CO)[C@@H](O)C2)c(=O)[nH]c1=O (relative stereo) [reference compound],VR,[1],0.1
same,"Antiviral activity against herpes simplex virus, in words",[1],devoid of significant activity
"CC(=O)OC[C@H]1C[C@@H](n2cc(I)c(=O)[nH]c2=O)C[C@@H]1OC(C)=O (relative stereo) [Example 4, (±)-1-[(1α,3β,4α)-3-Hydroxy-4-(hydroxymethyl)cyclopentyl]-5-iodo-2,4(1H,3H)-pyrimidinedione Diacetate]",EC50,[1]; [7],10 µg/mL
same,Virus Rating (VR),[1]; [5],2.4
Cc1cn([C@@H]2C[C@H](CO)[C@@H](O)C2)c(=O)[nH]c1=O (relative stereo) [Carbocyclic analog of thymidine],"Activity against Type 2 herpes simplex virus, in words",[3],high activity
same,VR,[3],3.2
same,EC50,[1]; [6],0.8 µg/mL
same,Virus Rating (VR),[1]; [5],5.4
same,Virus Rating (VR),[1]; Table 3 comparison,5.4
same,"Antiviral activity against herpes simplex virus, in words",[1],very high activity
"O=c1[nH]c(=O)n([C@@H]2C[C@H](CO)[C@@H](O)C2)cc1I (relative stereo) [Example 3, (±)-1-[(1α,3β,4α)-3-Hydroxy-4-(hydroxymethyl)cyclopentyl]-5-iodo-2,4(1H,3H)-pyrimidinedione]","Activity against Type 2 herpes simplex virus, in words",[3],high activity
same,VR,[3],3.4
same,"Activity against murine leukemia virus, in words",murine leukemia virus,active
same,Replication of murine leukemia virus in mouse embryo cells,murine leukemia virus; drug concentration of 32 μg/ml,completely inhibited
same,Virus Yield Log10 CCID50 /ml,varicella-zoster virus; 32 μM,≤ 0.5 Log10 CCID50 /ml
same,"Virus-Induced Cytopathogenic Effects at 10 Days Postinfection, %","varicella-zoster virus; 32 μM, human foreskin fibroblasts",0%
same,Virus Yield Log10 CCID50 /ml,varicella-zoster virus; 100 μM,≤ 0.5 Log10 CCID50 /ml
same,"Virus-Induced Cytopathogenic Effects at 10 Days Postinfection, %","varicella-zoster virus; 100 μM, human foreskin fibroblasts",0%
same,Virus Yield Log10 CCID50 /ml,varicella-zoster virus; 320 μM,≤ 0.5 Log10 CCID50 /ml
same,"Virus-Induced Cytopathogenic Effects at 10 Days Postinfection, %","varicella-zoster virus; 320 μM, human foreskin fibroblasts",0%
same,"observable virus-induced cytopathogenic effects at 10 days postinfection, in words",varicella-zoster virus; 10 days postinfection,no observable virus-induced cytopathogenic effects
same,log reduction at 32 µM,"varicella-zoster virus; Human alphaherpesvirus 3, Fibroblast, 32 μM, read-out: Log10 Reduction in Virus Titer",≥ 4
same,log reduction at 100 µM,"varicella-zoster virus; Human alphaherpesvirus 3, Fibroblast, 100 μM, read-out: Log10 Reduction in Virus Titer",≥ 4
same,log reduction at 320 µM,"varicella-zoster virus; Human alphaherpesvirus 3, Fibroblast, 320 μM, read-out: Log10 Reduction in Virus Titer",≥ 4
same,"Activity against varicella-zoster virus, in words",varicella-zoster virus; human foreskin fibroblasts,active
same,reduction in the titer of virus progeny,varicella-zoster virus; virus yield-reduction experiment,≥ 4.0 log10
same,% of Infected Mice that lived 10 days or longer,herpes simplex virus [4]; 300 mg./kg.,40%
same,% of Infected Mice that lived less than six days,herpes simplex virus [4]; 300 mg./kg.,10%
same,Median Survival Time,herpes simplex virus [4]; 300 mg./kg.,9.2 days
same,% of Infected Mice that lived 10 days or longer,herpes simplex virus [4]; 400 mg./kg.,50%
same,% of Infected Mice that lived less than six days,herpes simplex virus [4]; 400 mg./kg.,0%
same,Median Survival Time,herpes simplex virus [4]; 400 mg./kg.,8.8 days
same,"Activity against herpes encephalitis in mice, in words",herpes simplex virus [4],active against herpes encephalitis
same,"Activity against herpes encephalitis in mice, in words",herpes simplex virus [4]; listed as carbocyclic analog of 5-iodo-2'-deoxyuridine,active
same,EC50,"[1]; Human alphaherpesvirus 1, read-out: MIC50 (minimum inhibitory concentration, 50%), Table 1, 50% inhibition of virus-induced cytopathogenic effect, rabbit kidney cells",0.3 µg/mL
same,Virus Rating (VR),[1]; [5],7.1
same,"Activity compared with IdUrd, in words",[1]; Table 3 tests,comparable in activity
same,"Antiviral activity against herpes simplex virus, in words",[1],very high activity; also recorded: high activity
"CCCCNc1cn([C@@H]2C[C@H](CO)[C@@H](O)C2)c(=O)[nH]c1=O (relative stereo) [Example 6, (±)-5-(Butylamino)-1-[(1α,3β,4α)-3-hydroxy-4-(hydroxymethyl)cyclopentyl]-2,4(1H,3H)-pyrimidinedione]",EC50,[1]; [7],290 µg/mL
same,Virus Rating (VR),[1]; [5],2.0
same,"Antiviral activity against herpes simplex virus, in words",[1],active
"O=c1[nH]c(=O)n([C@@H]2C[C@H](CO)[C@@H](O)C2)cc1Br (relative stereo) [Example 2, (±)-5-Bromo-1-[(1α,3β,4α)-3-hydroxy-4-(hydroxymethyl)cyclopentyl]-2,4(1H,3H)-pyrimidinedione]","Activity against Type 2 herpes simplex virus, in words",[3],high activity
same,VR,[3],1.5
same,EC50,[1]; [6],0.3 µg/mL
same,Virus Rating (VR),[1]; [5],6.2
same,Virus Rating (VR),[1]; Table 3 comparison,6.2
same,"Antiviral activity against herpes simplex virus, in words",[1],very high activity; also recorded: high activity
"O=c1[nH]c(=O)n([C@@H]2C[C@H](CO)[C@@H](O)C2)cc1F (relative stereo) [Formula I, X = F, R = R^1 = H, reference compound]",Virus Rating (VR),[1]; [5],0
same,VR,[1],0
same,"Antiviral activity against herpes simplex virus, in words",[1],not active
"CNc1cn([C@@H]2C[C@H](CO)[C@@H](O)C2)c(=O)[nH]c1=O (relative stereo) [Example 5, (±)-1-[(1α,3β,4α)-3-Hydroxy-4-(hydroxymethyl)cyclopentyl]-5-(methylamino)-2,4(1H,3H)-pyrimidinedione]","Activity against Type 2 herpes simplex virus, in words",[3],high activity
same,VR,[3],1.2
same,EC50,[1]; [7],15 µg/mL
same,EC50,[1]; [6],10 µg/mL
same,Virus Rating (VR),[1]; [5],3.9
same,Virus Rating (VR),[1]; Table 3 comparison,4.2
same,"Antiviral activity against herpes simplex virus, in words",[1],very high activity; also recorded: active
"Nc1ncnc2c1ncn2[C@@H]1O[C@H](CO)[C@@H](O)[C@@H]1O [9-β-D-Arabinofuranosyladenine (Ara-A), 9-β-D-arabinofuranosyladenine, reference compound]",EC50,"[1]; Human alphaherpesvirus 1, read-out: MIC50, Table 3 comparison",9.8 µg/mL
same,Virus Rating (VR) (average),"[1]; Table 3 comparison, average",2.7
"CC(=O)OC[C@H]1C[C@@H](n2cc(Br)c(=O)[nH]c2=O)C[C@@H]1OC(C)=O (relative stereo) [Example 1, (±)-5-Bromo-1-[(1α,3β,4α)-3-hydroxy-4-(hydroxymethyl)cyclopentyl]-2,4(1H,3H)-pyrimidinedione Diacetate]",EC50,[1]; [7],92 µg/mL
same,Virus Rating (VR),[1]; [5],1.3
